pIC50, pKd: −log10 of the molar value. Calls of active or inactive are those of the source. No cut-off for these calls is given here.
What was measured:
[1] = Inhibition of C57BL/6 mouse Regulatory T cells differentiation from CD4+ T cells assessed as frequency of CD4+ Foxp3+ Treg cells at 0.3 uM incubated for 96 hrs by flow cytometric analysis ( Rvb = 24.48 %); format: functional, Regulatory T cell; set-up: scale not given: the % may be the effect or the level left
Regulatory T cell [2] = experiment: Inhibition of C57BL/6 mouse Regulatory T cells differentiation from CD4+ T cells assessed as change in Foxp3 mRNA expression at 0.1 to 1 uM incubated for 96 hrs by qPCR analysis; format: functional, cell-based; details: dose 0.1-1 µM
Pyruvate kinase PKM [3] = biological target: T1, Pyruvate kinase PKM (Homo sapiens, UniProt P14618); experiment: Binding affinity to PKM2 (unknown origin) assessed as dissociation constant by SPR analysis
Target sequence in this assay (P14618 whole entry): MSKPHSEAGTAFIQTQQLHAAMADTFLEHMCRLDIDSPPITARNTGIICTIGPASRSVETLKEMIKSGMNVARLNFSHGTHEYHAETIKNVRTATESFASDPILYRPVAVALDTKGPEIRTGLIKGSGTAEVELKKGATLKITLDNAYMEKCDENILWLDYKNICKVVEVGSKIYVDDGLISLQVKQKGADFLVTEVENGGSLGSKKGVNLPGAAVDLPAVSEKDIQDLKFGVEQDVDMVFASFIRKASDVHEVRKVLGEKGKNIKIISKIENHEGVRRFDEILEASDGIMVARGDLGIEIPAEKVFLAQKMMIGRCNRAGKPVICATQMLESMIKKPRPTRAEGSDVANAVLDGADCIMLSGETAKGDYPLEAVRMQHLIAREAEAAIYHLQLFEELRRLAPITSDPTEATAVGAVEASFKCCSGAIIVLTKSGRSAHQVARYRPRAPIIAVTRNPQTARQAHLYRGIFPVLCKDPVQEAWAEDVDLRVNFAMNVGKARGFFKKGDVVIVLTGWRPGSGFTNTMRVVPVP

Th17 [4] = experiment: Inhibition of C57BL/6 mouse Th17 cell differentiation from CD4+ T cells assessed as reduction in HK2 mRNA level; format: functional, cell-based
Th17 [5] = experiment: Inhibition of C57BL/6 mouse Th17 cell differentiation from CD4+ T cells assessed as reduction in Glut1 mRNA level; format: functional, cell-based
Th17 [6] = experiment: Inhibition of C57BL/6 mouse Th17 cell differentiation from CD4+ T cells assessed as reduction in IL-21 mRNA expression at 0.1 uM incubated for 96 hrs by qPCR analysis; format: functional, cell-based
Mus musculus [7] = experiment: Antiinflammatory activity in DSS-induced colitis female C57BL/6 mouse model assessed as reduction in body weight loss at 5 to 10 mg/kg, ip administered for 12 days with subsequent treatment of DSS for 9 days followed by drinking water for 3 days; format: functional, organism-based; details: dose 5-10 mg/kg, time 12.0 day
Th17 [8] = experiment: Inhibition of C57BL/6 mouse Th17 cell differentiation from CD4+ T cells assessed as reduction in PFK1 mRNA level; format: functional, cell-based
[9] = Inhibition of C57BL/6 mouse Th17 cells differentiation from CD4+ T cells assessed as frequency of CD4+ IL-17A+ Th17 cells at 1 uM incubated for 96 hrs by flow cytometric analysis (reference value: 23.52 %); format: functional; set-up: scale not given: the % may be the effect or the level left
Mus musculus [10] = experiment: Antiinflammatory activity in DSS-induced colitis female C57BL/6 mouse model assessed as reduction in disease activity index score at 5 to 10 mg/kg, ip administered for 12 days with subsequent treatment of DSS for 9 days followed by drinking water for 3 days; format: functional, organism-based; details: dose 5-10 mg/kg, time 12.0 day
Mus musculus [11] = experiment: Antiinflammatory activity in DSS-induced colitis female C57BL/6 mouse model assessed as reduction in shortening of colon length at 5 mg/kg, ip administered for 12 days with subsequent treatment of DSS for 9 days followed by drinking water for 3 days; format: functional, organism-based; details: time 12.0 day
[12] = biological target: Pyruvate kinase PKM (Mus musculus) (UniProt P52480); experiment: Activation of PKM2 in C57BL/6 mouse Th17 cells differentiated from CD4+ T cells assessed as induction of PKM2 tetramer formation at 0.1 to 1 uM incubated for 48 hrs by immunoblotting based protein cross linking assay; format: cell-based; details: filed as activator, dose 0.1-1 µM
Pyruvate kinase PKM (Mus musculus), sequence (P52480 whole entry): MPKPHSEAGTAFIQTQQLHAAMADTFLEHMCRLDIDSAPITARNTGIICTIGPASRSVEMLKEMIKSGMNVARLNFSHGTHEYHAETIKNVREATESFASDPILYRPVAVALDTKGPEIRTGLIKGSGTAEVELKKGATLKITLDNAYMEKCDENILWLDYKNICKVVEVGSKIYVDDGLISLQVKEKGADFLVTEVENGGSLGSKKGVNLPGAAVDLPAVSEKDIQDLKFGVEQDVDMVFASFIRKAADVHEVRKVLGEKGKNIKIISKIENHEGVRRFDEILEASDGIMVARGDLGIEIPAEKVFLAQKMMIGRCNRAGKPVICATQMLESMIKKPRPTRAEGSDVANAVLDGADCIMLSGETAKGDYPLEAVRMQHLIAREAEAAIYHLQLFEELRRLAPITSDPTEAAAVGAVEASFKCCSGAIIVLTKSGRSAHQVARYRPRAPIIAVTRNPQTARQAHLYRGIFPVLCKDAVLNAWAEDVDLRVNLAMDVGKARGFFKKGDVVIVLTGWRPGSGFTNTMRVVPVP

[13] = Inhibition of C57BL/6 mouse Th17 cells differentiation from CD4+ T cells assessed as frequency of CD4+ IL-17A+ Th17 cells at 0.3 uM incubated for 96 hrs by flow cytometric analysis (reference value: 23.52 %); format: functional; set-up: scale not given: the % may be the effect or the level left
Th17 [14] = experiment: Inhibition of C57BL/6 mouse Th17 cell differentiation from CD4+ T cells assessed as reduction in IL-17a mRNA expression at 0.1 uM incubated for 96 hrs by qPCR analysis; format: functional, cell-based
Th17 [15] = experiment: Inhibition of C57BL/6 mouse Th17 cell differentiation from CD4+ T cells assessed as reduction in Glut1 protein level; format: functional, cell-based
Mus musculus [16] = experiment: Antiinflammatory activity in DSS-induced colitis female C57BL/6 mouse model assessed as improvement in crypt deformation at 5 to 10 mg/kg, ip administered for 12 days with subsequent treatment of DSS for 9 days followed by drinking water for 3 days by H and E staining based analysis; format: functional, organism-based; details: dose 5-10 mg/kg, time 12.0 day
Th17 [17] = experiment: Downregulation of total PKM2 expression in C57BL/6 mouse Th17 cells differentiated from CD4+ T cells at 0.1 to 1 uM incubated for 48 hrs by Western blot analysis; format: functional, cell-based; details: dose 0.1-1 µM
Th17 [18] = experiment: Inhibition of C57BL/6 mouse Th17 cell differentiation from CD4+ T cells assessed as reduction in […] mRNA expression at 0.1 uM incubated for 96 hrs by qPCR analysis; format: functional, cell-based
Pyruvate kinase PKM [19] = biological target: T1, Pyruvate kinase PKM; experiment: Activation of recombinant human PKM2 incubated for 40 mins by pyruvate kinase assay
Target sequence in this assay (P14618 whole entry): as the sequence (P14618 whole entry) above

Th17 [20] = experiment: Inhibition of C57BL/6 mouse Th17 cell differentiation from CD4+ T cells assessed as reduction in lactate production at […] to 1 uM incubated for 48 hrs by colorimetric analysis; format: functional, cell-based
Th17 [21] = experiment: Inhibition of C57BL/6 mouse Th17 cell differentiation from CD4+ T cells assessed as reduction in PFK1 protein level; format: functional, cell-based
[22] = Inhibition of C57BL/6 mouse Regulatory T cells differentiation from CD4+ T cells assessed as frequency of CD4+ Foxp3+ Treg cells at 0.1 uM incubated for 96 hrs by flow cytometric analysis ( Rvb = 24.48 %); format: functional, Regulatory T cell; set-up: scale not given: the % may be the effect or the level left
Th17 [23] = experiment: Inhibition of C57BL/6 mouse Th17 cell differentiation from CD4+ T cells assessed as reduction in HK2 protein level; format: functional, cell-based
[24] = Inhibition of C57BL/6 mouse Th17 cells differentiation from CD4+ T cells assessed as frequency of CD4+ IL-17A+ Th17 cells at 0.1 uM incubated for 96 hrs by flow cytometric analysis (reference value: 23.52 %); format: functional; set-up: scale not given: the % may be the effect or the level left
Mus musculus [25] = experiment: Antiinflammatory activity in DSS-induced colitis female C57BL/6 mouse model assessed as improvement in goblet cell loss at 5 to 10 mg/kg, ip administered for 12 days with subsequent treatment of DSS for 9 days followed by drinking water for 3 days by H and E staining based analysis; format: functional, organism-based; details: dose 5-10 mg/kg, time 12.0 day
T-cell [26] = experiment: Potency index, ratio of Parthenolide IC50 to test compound IC50 for antiproliferative activity against concanavalin A-stimulated C57BL/6 mouse T cells measured after 48 hrs by CCK8 assay; format: functional
Th17 [27] = experiment: Effect on PKM2 expression in cytoplasm of C57BL/6 mouse Th17 cells differentiated from CD4+ T cells at 0.1 to 1 uM incubated for 48 hrs by Western blot analysis; format: functional, cell-based; details: dose 0.1-1 µM
[28] = Inhibition of C57BL/6 mouse Regulatory T cells differentiation from CD4+ T cells assessed as frequency of CD4+ Foxp3+ Treg cells at 1 uM incubated for 96 hrs by flow cytometric analysis ( Rvb = 24.48 %); format: functional, Regulatory T cell; set-up: scale not given: the % may be the effect or the level left
T-cell [29] = experiment: Antiproliferative activity against concanavalin A-stimulated C57BL/6 mouse T cells measured after 48 hrs by CCK8 assay; format: functional, cell-based; details: C57BL/6, T-cell
[30] = biological target: Pyruvate kinase PKM (Mus musculus) (UniProt P52480); experiment: Inhibition of PKM2 dimer nuclear translocation in C57BL/6 mouse Th17 cells differentiated from CD4+ T cells assessed as decrease in PKM2 expression in nucleus at 0.1 to 1 uM incubated for 48 hrs by Western blot analysis; format: cell-based; details: dose 0.1-1 µM
Pyruvate kinase PKM [31] = biological target: T1, Pyruvate kinase PKM; experiment: Binding affinity to PKM2 (unknown origin) assessed as association rate constant (Ka) at 3.125 to 50 uM by SPR analysis; details: filed as activator, dose 3.125-50 µM
Target sequence in this assay (P14618 2-531 limits assumed): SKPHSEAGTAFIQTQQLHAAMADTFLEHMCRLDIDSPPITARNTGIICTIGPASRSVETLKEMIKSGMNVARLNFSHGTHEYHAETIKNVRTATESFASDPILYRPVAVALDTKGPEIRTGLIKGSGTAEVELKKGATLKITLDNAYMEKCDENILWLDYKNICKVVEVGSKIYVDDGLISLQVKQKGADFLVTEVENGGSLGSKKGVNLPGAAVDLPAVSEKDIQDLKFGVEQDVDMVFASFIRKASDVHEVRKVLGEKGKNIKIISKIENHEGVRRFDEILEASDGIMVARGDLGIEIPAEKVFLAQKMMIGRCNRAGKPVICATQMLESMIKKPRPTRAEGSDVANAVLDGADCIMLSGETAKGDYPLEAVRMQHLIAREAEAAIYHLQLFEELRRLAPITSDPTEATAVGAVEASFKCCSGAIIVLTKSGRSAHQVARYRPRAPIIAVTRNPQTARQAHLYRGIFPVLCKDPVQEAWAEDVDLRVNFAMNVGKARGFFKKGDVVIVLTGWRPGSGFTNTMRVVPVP

Th17 [32] = experiment: Inhibition of C57BL/6 mouse Th17 cell differentiation from CD4+ T cells assessed as decrease in glucose consumption incubated for 48 hrs by colorimetric analysis; format: functional, cell-based; details: dose 1.0 µM
Regulatory T cell [33] = experiment: Inhibition of C57BL/6 mouse Regulatory T cells differentiation from CD4+ T cells assessed as change in IL-10 mRNA expression at 0.1 to 1 uM incubated for 96 hrs by qPCR analysis; format: functional, cell-based; details: dose 0.1-1 µM
Pyruvate kinase PKM [34] = biological target: T1, Pyruvate kinase PKM; experiment: Covalent binding affinity to Cys423 residue of recombinant human PKM2 at 50 uM incubated for 60 mins by LC-MS/MS analysis; details: filed as activator
Target sequence in this assay (P14618 2-531 limits assumed): as above

Mus musculus [35] = experiment: Antiinflammatory activity in DSS-induced colitis female C57BL/6 mouse model assessed as improvement in inflammatory cell infiltration at 5 to 10 mg/kg, ip administered for 12 days with subsequent treatment of DSS for 9 days followed by drinking water for 3 days by H and E staining based analysis; format: functional, organism-based; details: dose 5-10 mg/kg, time 12.0 day
[36] = biological target: Pyruvate kinase PKM (Mus musculus) (UniProt P52480); experiment: Induction of thermal stabilization of PKM2 in C57BL/6 mouse CD4+ T cells at 1 uM incubated for 4 hrs at 58 to 64 degreeC by CETSA; format: cell-based; details: CD4+ T cell
Th17 [37] = experiment: Inhibition of C57BL/6 mouse Th17 cell differentiation from CD4+ T cells assessed as reduction in RORC mRNA expression at 0.1 uM incubated for 96 hrs by qPCR analysis; format: functional, cell-based
Pyruvate kinase PKM [38] = biological target: T1, Pyruvate kinase PKM; experiment: Binding affinity to PKM2 (unknown origin) assessed as dissociation rate constant (Kd) at 3.125 to 50 uM by SPR analysis
Target sequence in this assay (P14618 whole entry): as the sequence (P14618 whole entry) above

With C=C1C(=O)O[C@H]2[C@H]1CC/C(COC(F)(F)F)=C\CC[C@@]1(C)O[C@@H]21 the Activity [1] was 24.84%, the inhibition (Regulatory T cell [2]) was “inactive” and the pKd (Pyruvate kinase PKM [3]) was 5.61. For the same compound, the inhibition (Th17 [4]) was “Active”, the inhibition (Th17 [5]) was “Active” and the inhibition (Th17 [6]) was “Active”. For the same compound, the Activity (Mus musculus [7]) was “Active”, the inhibition (Th17 [8]) was “Active” and the Activity [9] was 9.84%. The Activity (Mus musculus [10]) was “Active”, the Activity (Mus musculus [11]) was “Active” and the Activity [12] was “Active”. For the same compound, the Activity [13] was 14.67%, the inhibition (Th17 [14]) was “Active” and the inhibition (Th17 [15]) was “Active”. For the same compound, the Activity (Mus musculus [16]) was “Active”, the Activity (Th17 [17]) was “Active” and the inhibition (Th17 [18]) was “Active”. The AC50 (Pyruvate kinase PKM [19]) was 144 nM, the inhibition (Th17 [20]) was “Active” and the inhibition (Th17 [21]) was “Active”. For the same compound, the Activity [22] was 23.97%, the inhibition (Th17 [23]) was “Active” and the Activity [24] was 17.11%. The Activity (Mus musculus [25]) was “Active”, the “Ratio IC50” value (T-cell [26]) was 5 and the Activity (Th17 [27]) was “inactive”. The Activity [28] was 25.4%, the pIC50 (T-cell [29]) was 6.37 and the inhibition [30] was “Active”. For the same compound, the Ka (Pyruvate kinase PKM [31]) was 1.12 10^4/Ms, the inhibition (Th17 [32]) was “Dose-Dependent Effect” and the inhibition (Regulatory T cell [33]) was “inactive”. For the same compound, the Activity (Pyruvate kinase PKM [34]) was “Active”, the Activity (Mus musculus [35]) was “Active” and the Activity [36] was “Active”. For the same compound, the inhibition (Th17 [37]) was “Active” and the Kd (Pyruvate kinase PKM [38]) was 0.028 s⁻¹.

From ChEMBL document CHEMBL5550146, “Design, synthesis, and biological evaluation of novel sesquiterpene lactone derivatives as PKM2 activators with potent anti-ulcerative colitis activities” (Eur J Med Chem, 2024)
